Data from patent US6905706B2, “Medicinal herbal extract carpediol for treating depression” (Swedish Herbal Institute, priority 2002, dated 2005).
Where “and” joins values, the source holds several entries; their conditions need not be identical. Identical values can stand only once.

Assay: Effect of co-administered extracts on the pharmacokinetics of theophylline in rats
Experimental: Carpediol spissum (Batch No Ex 20404); Swedish Herbal Institute, Gothenburg, Sweden) as described above in Example 1. […] It was analyzed for purity by HPLC, Capillary electrophoresis, ^1H-NMR and ^13C-NMR. • (e) Internal standard: Methyl-4-hydroxybenzoate 99%, F.W. 152.15 Aldrich. • (f) Water, demonized and distilled. • (g) Water for High Performance Capillary Electrophoresis (HPCE), HEWLETT-PACKARD. • (h) Buffer pH=9.3 for HPCE (50 mM Borate). • (i) 0.1N Sodium Hydroxide Solution for HPCE. • (j) Chloroform HPLC grade. • (k) 2-Propanol spectrophotometric grade. • (l) Methanol Chromasorv.
Animals—In this study, 144 time-mated male Wistar rats were used. Breeder: Institute of Fine Organic Chemistry of the National Academy of Science, Yerevan. The initial weight of the animals: 130-170 g (mean weight 149.93±12.4 g). […] All animals were clinically examined upon arrival and any animal showing signs of abnormality or disease was excluded. Animals considered unsuitable for the study were replaced before the start. No animal was replaced following the start of the study.
Dosage and Administration—An appropriate amount of herbal extract was dissolved in distilled water and given at 10:00-10:30 am by oral gavage. Suspensions were shaken gently before oral administration. Suspensions were prepared fresh every day. Control animals were given an appropriate volume of drinking water. Blood samples from rats receiving the carrier only were also analyzed.
Groups of six animals were treated orally with water (10 ml×2 times per day) for three days. 60 minutes after last administration of water, a solution of Aminophylline (10 ml/kg) was given to each animal in dose of 240 mg/kg (corresponding to 192 mg/kg of Theophylline) and blood samples were taken 0.25, 0.5, 1.0, 2.0, 4.0, 6.0 and 8.0 hours after the theophylline administration. A separate group of animals was used for each time point.
It was administered orally in a volume of 10 ml/kg of body weight. Freshly prepared extract was administered two times daily for 3 consecutive days. Single dose—25 mg/kg, daily dose—50 mg/kg. 60 minutes after last administration, a water solution of Aminophylline (10 ml/kg) was given to each animal in dose of 240 mg/kg (corresponding to 192 mg/kg of Theophylline) and blood samples were taken 0.25, 0.5, 1.0, 2.0, 4.0, 6.0 and 8.0 hours after the theophylline administration. A separate group of animals was used for each time point.
One tablet of Jarsin 300 was suspended in 10 ml of water and administered two times daily for 3 consecutive days. 60 minutes after last administration, water solution of Aminophylline (10 ml/kg) was given to each animal in dose of 240 mg/kg (corresponding to 192 mg/kg of Theophylline) and blood samples were taken 0.25, 0.5, 1.0, 2.0, 4.0, 6.0 and 8.0 hours after the theophylline administration. A separate group of animals was used for each time point.
Sampling of blood and sample preparation—Animals were sacrificed by laboratory guillotine. Following decapitation, blood was collected separately in centrifuge tubes and centrifuged at 3000 rpm for 10 min. Blood serum was separated and 50 μl was taken for theophylline assay. Conservation of the samples: the centrifuge tubes were closed with caps, frozen and stored in a freezer for 1-3 days prior to bio-assay.
Analytical Method: Capillary Electrophoresis—A modified capillary electrophoresis method was used, using an internal standard and as a mobile phase 50 mM borate buffer (pH 9.3) without SDS.
Pre-assay preparation—The Ramzan et al. method (52) of extraction of theophylline from serum was modified as follows. 50 μl of blood serum was added to 10 μl of an internal standard methanol solution (methyl-paraben, 60 μg/ml) in centrifuge tube to obtain final concentration of methyl paraben 10 μg/ml. The solution was vortexed vigorously for 10 sec and 1 ml of solvent system of isopropanol. and chloroform in a 5:95 ratio was added for extraction.

[1] = Group 1 (water control), rats, calculated by mean concentrations
[2] = Group 1 (water control), rats, mean of 6 series (column A)
[3] = Group 2 (CRE pretreatment), rats, calculated by mean concentrations
[4] = Group 2 (CRE pretreatment), rats, mean of 6 series (column A)
[5] = Group 3 (Jarsin 300 pretreatment), rats, calculated by mean concentrations
[6] = Group 3 (Jarsin 300 pretreatment), rats, mean of 6 series (column A)

SMILES: Cn1c(=O)c2[nH]cnc2n(C)c1=O [Theophylline, 1,3-dimethylxantin]
- Concentration of Theophylline in Rat Serum (Group 1 (water control), aminophylline 240 mg/kg p.o., 15 min, single rat): 181.11 µg/mL and 172.059 µg/mL and 225.306 µg/mL and 153.35 µg/mL and 146.67 µg/mL and 101.82 µg/mL
- Concentration of Theophylline in Rat Serum (Group 1 (water control), aminophylline 240 mg/kg p.o., 30 min, single rat): 135.41 µg/mL and 89.49 µg/mL and 50.10 µg/mL and 143.18 µg/mL and 337.56 µg/mL and 101.83 µg/mL
- Concentration of Theophylline in Rat Serum (Group 1 (water control), aminophylline 240 mg/kg p.o., 60 min, single rat): 138.11 µg/mL and 194.27 µg/mL and 255.06 µg/mL and 154.77 µg/mL and 231.79 µg/mL and 86.37 µg/mL
- Concentration of Theophylline in Rat Serum (Group 1 (water control), aminophylline 240 mg/kg p.o., 120 min, single rat): 57.30 µg/mL and 71.98 µg/mL and 61.23 µg/mL and 97.22 µg/mL and 56.61 µg/mL
- Concentration of Theophylline in Rat Serum (Group 1 (water control), aminophylline 240 mg/kg p.o., 240 min, single rat): 77.66 µg/mL and 94.86 µg/mL and 114.84 µg/mL and 61.03 µg/mL and 105.31 µg/mL and 169.15 µg/mL
- Concentration of Theophylline in Rat Serum (Group 1 (water control), aminophylline 240 mg/kg p.o., 360 min, single rat): 43.95 µg/mL and 42.46 µg/mL and 73.58 µg/mL and 77.92 µg/mL and 81.94 µg/mL and 31.38 µg/mL
- Concentration of Theophylline in Rat Serum (Group 1 (water control), aminophylline 240 mg/kg p.o., 480 min, single rat): 22.05 µg/mL and 69.25 µg/mL and 63.68 µg/mL and 44.98 µg/mL and 89.99 µg/mL and 16.09 µg/mL
- Clt of Theophylline [1]: 0.4642 mL/min
- Kel of Theophylline [1]: 0.149 h⁻¹
- Vd of Theophylline [1]: 0.1871 L
- Clt of Theophylline, Mean [2]: 0.4973 mL/min and 0.497 ± 0.055 mL/min
- Cmax of Theophylline, Mean [2]: 195.2 ± 32.9 µg/mL
- Kel of Theophylline, Mean [2]: 0.1638 h⁻¹ and 0.164 ± 0.02 h⁻¹
- MRT of Theophylline, Mean [2]: 6.6239 ± 0.70 h
- Vd of Theophylline, Mean [2]: 0.186 ± 0.015 L
- t1/2 of Theophylline, Mean [2]: 4.504 ± 0.47 h
- Clt of Theophylline (Group 1 (water control), rats, single series): 0.441 mL/min and 0.3881 mL/min and 0.4945 mL/min and 0.3453 mL/min and 0.6439 mL/min and 0.671 mL/min
- Concentration of Theophylline in Rat Serum (Group 2 (CRE pretreatment 3 days), aminophylline 240 mg/kg p.o., 15 min, single rat): 192.873 µg/mL and 144.71 µg/mL and 164.57 µg/mL and 161.40 µg/mL and 98.74 µg/mL and 8.06 µg/mL
- Concentration of Theophylline in Rat Serum (Group 2 (CRE pretreatment 3 days), aminophylline 240 mg/kg p.o., 30 min, single rat): 190.52 µg/mL and 145.07 µg/mL and 223.28 µg/mL and 30.54 µg/mL and 154.41 µg/mL and 81.52 µg/mL
- Concentration of Theophylline in Rat Serum (Group 2 (CRE pretreatment 3 days), aminophylline 240 mg/kg p.o., 60 min, single rat): 158.01 µg/mL and 189.11 µg/mL and 120.37 µg/mL and 158.89 µg/mL and 119.72 µg/mL
- Concentration of Theophylline in Rat Serum (Group 2 (CRE pretreatment 3 days), aminophylline 240 mg/kg p.o., 120 min, single rat): 205.63 µg/mL and 140.04 µg/mL and 180.859 µg/mL and 96.55 µg/mL and 68.74 µg/mL and 91.30 µg/mL
- Concentration of Theophylline in Rat Serum (Group 2 (CRE pretreatment 3 days), aminophylline 240 mg/kg p.o., 240 min, single rat): 89.87 µg/mL and 65.03 µg/mL and 61.82 µg/mL and 134.64 µg/mL and 148.86 µg/mL and 115.97 µg/mL
- Concentration of Theophylline in Rat Serum (Group 2 (CRE pretreatment 3 days), aminophylline 240 mg/kg p.o., 360 min, single rat): 35.31 µg/mL and 7.61 µg/mL and 20.21 µg/mL and 233.16 µg/mL and 91.61 µg/mL and 38.01 µg/mL
- Concentration of Theophylline in Rat Serum (Group 2 (CRE pretreatment 3 days), aminophylline 240 mg/kg p.o., 480 min, single rat): 7.16 µg/mL and 34.98 µg/mL and 45.36 µg/mL and 56.71 µg/mL and 33.96 µg/mL and 12.51 µg/mL
- Clt of Theophylline [3]: 0.502 mL/min
- Kel of Theophylline [3]: 0.2042 h⁻¹
- Vd of Theophylline [3]: 0.1475 L
- Clt of Theophylline, Mean [4]: 0.5670 mL/min and 0.567 ± 0.067 mL/min
- Kel of Theophylline, Mean [4]: 0.2706 h⁻¹ and 0.271 ± 0.035 h⁻¹
- Vd of Theophylline, Mean [4]: 0.130 ± 0.014 L
- Cmax of Theophylline (Group 2 (CRE pretreatment), rats, single series): 223.3 µg/mL and 161.4 µg/mL and 158.9 µg/mL and 119.7 µg/mL and 192.9 µg/mL
- Concentration of Theophylline in Rat Serum (Group 3 (Jarsin 300 pretreatment 3 days), aminophylline 240 mg/kg p.o., 15 min, single rat): 4.86 µg/mL and 5.81 µg/mL
- Concentration of Theophylline in Rat Serum (Group 3 (Jarsin 300 pretreatment 3 days), aminophylline 240 mg/kg p.o., 30 min, single rat): 25.01 µg/mL and 34.73 µg/mL and 27.80 µg/mL
- Concentration of Theophylline in Rat Serum (Group 3 (Jarsin 300 pretreatment 3 days), aminophylline 240 mg/kg p.o., 60 min, single rat): 23.33 µg/mL and 30.97 µg/mL and 34.52 µg/mL
- Concentration of Theophylline in Rat Serum (Group 3 (Jarsin 300 pretreatment 3 days), aminophylline 240 mg/kg p.o., 120 min, single rat): 16.13 µg/mL and 44.11 µg/mL and 20.84 µg/mL
- Concentration of Theophylline in Rat Serum (Group 3 (Jarsin 300 pretreatment 3 days), aminophylline 240 mg/kg p.o., 240 min, single rat): 4.46 µg/mL and 16.77 µg/mL and 19.04 µg/mL
- Concentration of Theophylline in Rat Serum (Group 3 (Jarsin 300 pretreatment 3 days), aminophylline 240 mg/kg p.o., 360 min, single rat): 5.85 µg/mL and 11.58 µg/mL
- Concentration of Theophylline in Rat Serum (Group 3 (Jarsin 300 pretreatment 3 days), aminophylline 240 mg/kg p.o., 480 min, single rat): 2.34 µg/mL and 5.71 µg/mL
- Clt of Theophylline [5]: 2.310 mL/min
- Kel of Theophylline [5]: 0.2022 h⁻¹
- Vd of Theophylline [5]: 0.6853 L
- Clt of Theophylline, Mean [6]: 2.671 mL/min and 2.671 ± 0.637 mL/min
- Kel of Theophylline, Mean [6]: 0.2204 h⁻¹ and 0.220 ± 0.033 h⁻¹
- Vd of Theophylline, Mean [6]: 0.722 ± 0.091 L
- Cmax (male, Wistar, rat, in vivo, 240 mg/kg, Cmax of Theophylline, Group 1 (water control), rats, calculated by mean concentrations, 60 minutes): 177 µg/mL
- concentration at 120 min (male, Wistar, rat, in vivo, 240 mg/kg, Concentration of Theophylline in Rat Serum, Group 1 (water control), aminophylline 240 mg/kg p.o., 120 min, single rat): 96.3 µg/mL
- concentration at 15 min (male, Wistar, rat, in vivo, 240 mg/kg, Concentration of Theophylline in Rat Serum, Mean, Group 1 (water control), aminophylline 240 mg/kg p.o., 15 min, mean n=6): 163 µg/mL
- concentration at 30 min (male, Wistar, rat, in vivo, 240 mg/kg, Concentration of Theophylline in Rat Serum, Mean, Group 1 (water control), aminophylline 240 mg/kg p.o., 30 min, mean n=6): 143 µg/mL
- concentration at 60 min (male, Wistar, rat, in vivo, 240 mg/kg, Concentration of Theophylline in Rat Serum, Mean, Group 1 (water control), aminophylline 240 mg/kg p.o., 60 min, mean n=6): 177 µg/mL
- concentration at 120 min (male, Wistar, rat, in vivo, 240 mg/kg, Concentration of Theophylline in Rat Serum, Mean, Group 1 (water control), aminophylline 240 mg/kg p.o., 120 min, mean n=6): 73.4 µg/mL
- concentration at 240 min (male, Wistar, rat, in vivo, 240 mg/kg, Concentration of Theophylline in Rat Serum, Mean, Group 1 (water control), aminophylline 240 mg/kg p.o., 240 min, mean n=6): 104 µg/mL
- concentration at 360 min (male, Wistar, rat, in vivo, 240 mg/kg, Concentration of Theophylline in Rat Serum, Mean, Group 1 (water control), aminophylline 240 mg/kg p.o., 360 min, mean n=6): 58.5 µg/mL
- concentration at 480 min (male, Wistar, rat, in vivo, 240 mg/kg, Concentration of Theophylline in Rat Serum, Mean, Group 1 (water control), aminophylline 240 mg/kg p.o., 480 min, mean n=6): 51 µg/mL
